Reference: patent US8377923B2, “Triazole derivative or salt thereof” (Astellas Pharma Inc., priority 2008, dated 2013)
Counter-ions that a name gives are not always drawn.

Key:
[1] = tested on: male ddY mice; assay: Scopolamine-induced impairment of spontaneous alternation behavior test (Y-maze); format: in vivo, mouse; conditions: oral, scopolamine 0.5 mg/kg i.p., Y-maze 8 minutes
Description: Test Method 5: Scopolamine-Induced Impairment of Spontaneous Alternation Behavior Test
The compound to be tested was orally administered to male ddY mice of 5 to 7 weeks of age and scopolamine was intraperitoneally administered at 0.5 mg/kg after 10 minutes. After more 20 minutes, the animals were put in a Y-maze having arms of equivalent lengths into three directions and were allowed to freely search for 8 minutes. In this time, spontaneous alternation behavior to the arm (consecutive approach three times to different arms) was counted and a spontaneous alternation rate (spontaneous alternation behavior÷(approach number−2)×100) was calculated to evaluate pharmaceutical efficacy.

[2] = target: T1, human recombinant 11β-HSD1 (Homo sapiens, UniProt P28845); assay: Measuring test for human 11β-HSD1 inhibitory activity (HTRF cortisol detection); format: biochemical; conditions: human recombinant 11β-HSD1, 200 nM cortisone, 40 μM NADPH, pH 6.6, room temperature 1 h
T1 construct: made in house
Description: (§1) Test Method 1: Measuring Test for Human 11β-HSD1 and 11β-HSD2 Inhibitory Activities
The procedure for measuring 11β-HSD1-inhibitory action was as follows. In this connection, the enzyme reaction and measurement were carried out using a 384-well plate. The enzyme was prepared in accordance with a document (Walker E. A. et al., Journal of Biological Chemistry, 2001, vol. 276, p. 21343-21350). The reaction was carried out by adding the compound to be tested with various concentrations to a reaction liquid consisting of 10 mM phosphate buffer (pH 6.6), 200 nM cortisone, 40 μM reduced nicotinamide adenine dinucleotide phosphate (NADPH) and human recombinant 11β-HSD1, and then incubating the same at room temperature for one hour (10 μl/well). The compound to be tested was prepared by dissolving in dimethyl sulfoxide (DMSO) to a DMSO concentration of 1% in the reaction liquid. After the enzyme reaction was completed, the enzyme inhibitory action was measured by detecting cortisol using a homogeneous time-resolved fluorescence method (HTRF). Each of the XL-665-labeled cortisol containing 400 μM carbenoxolone and cryptate-labeled cortisol antibody (CIS bio international Co., Ltd.) was added in 5 μl/well portions and incubated at room temperature for 2 hours, and then the fluorescence intensity was measured using a fluorophotometer (trade name: Discovery, Perkin Elmer Inc.), and the enzyme inhibitory action was calculated from the fluorescence intensity ratio at two wavelengths (665 nm/620 nm).
(§2) The measured result was calculated by averaging the values of 3 wells of the same condition. The ratio when DMSO was added instead of the compound to be tested was regarded as 0% and the ratio when 11β-HSD1 or 11β-HSD2 was not added was regarded as 100%, thereby calculating 50% inhibition concentration of the compound to be tested as IC50 of the compound inhibitory action.

[3] = target: T2, human recombinant 11β-HSD2 (Homo sapiens, UniProt P80365); assay: Measuring test for human 11β-HSD2 inhibitory activity (HTRF cortisol detection); format: biochemical; conditions: human recombinant 11β-HSD2, 200 nM cortisol, 200 μM NAD, pH 8.0, 37° C. 2 h
T2 sequence (P80365 1-405): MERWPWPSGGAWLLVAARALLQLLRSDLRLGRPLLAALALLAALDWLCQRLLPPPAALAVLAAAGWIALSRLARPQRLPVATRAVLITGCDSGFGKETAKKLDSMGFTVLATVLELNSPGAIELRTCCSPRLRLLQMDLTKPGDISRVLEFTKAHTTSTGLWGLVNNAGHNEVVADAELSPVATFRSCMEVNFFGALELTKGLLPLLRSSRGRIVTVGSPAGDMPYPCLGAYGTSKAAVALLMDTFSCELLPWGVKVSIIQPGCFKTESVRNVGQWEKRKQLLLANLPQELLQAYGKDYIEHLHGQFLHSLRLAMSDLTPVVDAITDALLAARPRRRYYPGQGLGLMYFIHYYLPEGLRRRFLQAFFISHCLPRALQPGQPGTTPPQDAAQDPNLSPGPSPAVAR
Description: as §1
Measurement of the 11β-HSD2 inhibitory activity was carried out in the same manner as in the 11β-HSD1 inhibitory activity measurement, except for the enzyme reaction conditions. The enzyme reaction was carried out by adding the compound to be tested with various concentrations to a reaction liquid consisting of 40 mM Tris-HCl buffer (pH 8.0), 200 nM cortisol, 200 μM nicotinamide adenine dinucleotide (NAD) and human recombinant 11β-HSD2, and then incubating the same at 37° C. for 2 hours (10 μl/well).
as §2

[4] = tested on: CYP3A (human CYP3A gene promoter, via PXR); assay: Human CYP3A enzyme inducibility test (PXR/CYP3A promoter luciferase reporter in HepG2); format: cell-based; conditions: HepG2 cells, 16 hours after addition of the drug
Description: Test Method 6: Human CYP3A Enzyme Inducibility Test
3E+6 (n) Human hepatoma-derived cell lines, HepG2, were seeded on a 10 cm collagen-coated dish. Human PXR expression vectors, luciferase reporter vector in which a human CYP3A gene promoter region is inserted, and renilla expression vector as a control were transiently introduced 6 hours after cell seeding. The entire cells were further seeded on 384-well plates 16 hours after introduction, and a drug dissolved in DMSO was added thereto 6 hours after seeding. Luciferase activity of the reporter gene and control gene were measured 16 hours after addition of the drug, a value corrected by a control was regarded as an active value, and the value obtained by dividing by an activity value in which no drug was added was calculated as a fold induction.

[5] = tested on: ob/ob mice; assay: Ob/ob mouse blood-glucose lowering test; format: in vivo; conditions: bid, oral, 14 days, male ob/ob mice, 12 hours after final administration
Description: Test Method 2: Ob/Ob Mouse Blood-Glucose Lowering Test
A compound liquid was prepared using 6% 2-hydroxypropyl-β-cyclodextrin as a solvent. Using 7 weeks-old male ob/ob mice (blood-glucose level of 300 mg/dL or more), blood-glucose levels were measured under non-fasting conditions and then the mice were divided into groups so that the blood-glucose levels became uniform among the groups. The compound to be tested was orally administered twice per day repeatedly for 14 days (3 or 10 mg/kg, bid) and a basal blood-glucose level was measured 12 hours after final administration (n=6 to 10). Similarly, the compound to be tested was orally administered twice per day repeatedly for […] (3 or 10 mg/kg, bid) and a blood glucose at fasting was measured under fasting conditions 12 hours after final administration. The blood-glucose level was measured by carrying out colorimetric determination of the amount of glucose (mg/dl) in heparin blood plasma obtained by collecting blood in a heparin-coated glass capillary and subsequently centrifuging the same.

T1 sequence (P28845 whole entry): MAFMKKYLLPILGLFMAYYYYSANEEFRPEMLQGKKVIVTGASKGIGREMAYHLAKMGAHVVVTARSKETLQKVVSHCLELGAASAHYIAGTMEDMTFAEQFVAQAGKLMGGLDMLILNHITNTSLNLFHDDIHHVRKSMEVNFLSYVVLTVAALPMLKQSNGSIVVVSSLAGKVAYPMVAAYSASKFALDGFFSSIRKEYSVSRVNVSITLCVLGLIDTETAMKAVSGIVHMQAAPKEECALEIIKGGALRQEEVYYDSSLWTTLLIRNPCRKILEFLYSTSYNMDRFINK

| Structure (SMILES) | Minimal effective dose for spontaneous alternation rate [1] | IC50 [2] | IC50 [3] | fold induction at 16 h, 3 µM [4] | Basal blood-glucose lowering activity (%) ([5]; 3 mg/kg) | Basal blood-glucose lowering activity (%) ([5]; 10 mg/kg) |
| --- | --- | --- | --- | --- | --- | --- |
| Cn1c(-c2ccc(F)cc2Cl)nnc1C(C)(C)Oc1c(F)cc(F)cc1F [Example 65, 3-(2-chloro-4-fluorophenyl)-4-methyl-5-[1-methyl-1-(2,4,6-trifluorophenoxy)ethyl]-4H-1,2,4-triazole monohydrochloride] | 0.01 mg/kg | 0.0053 µM | > 3 µM |  |  |  |
| CC(C)n1c(-c2ccc(C(N)=O)cc2)nnc1C(C)(C)Oc1c(F)cccc1F [Example 616] |  | 0.02 µM | > 10 µM |  |  |  |
| CC(C)(Oc1c(F)cc(Cl)cc1F)c1nnc(-c2cc3c(cc2F)C(=O)NC3)n1C1CC1 [Example 580] |  | 0.01 µM | > 3 µM |  |  |  |
| CC(C)(Oc1cc(F)c(F)cc1F)c1nnc(-c2ccc(C(N)=O)cc2F)n1C1CC1 [Example 525] |  | 0.029 µM | > 10 µM |  |  |  |
| CC(C)n1c(-c2ccc(C(N)=O)cc2)nnc1C(C)(C)Oc1c(F)cc(F)cc1F [Example 531] |  | 0.05 µM | > 10 µM |  |  |  |
| CC(C)n1c(-c2ccc(C(N)=O)cc2)nnc1C(C)(C)Oc1c(F)cc(Cl)cc1F [Example 535] | 0.01 mg/kg | 0.054 µM | > 10 µM |  |  |  |
| Cn1c(-c2ccc(F)c3ccccc23)nnc1C(C)(C)Oc1c(F)cc(F)cc1F [Example 373] |  | 0.1 µM | > 100 µM |  |  |  |
| CC(C)(Oc1ccc(F)cc1F)c1nnc(-c2ccc(C(N)=O)cc2F)n1C1CC1 [Example 355] |  | 0.027 µM | > 10 µM |  |  |  |
| Cn1c(-c2ccccc2C(F)(F)F)nnc1C(C)(C)Oc1ccc(Cl)cc1 [Example 64, 3-[1-(4-chlorophenoxy)-1-methylethyl]-4-methyl-5-[2-(trifluoromethyl)phenyl]-4H-1,2,4-triazole monohydrochloride] | 0.001 mg/kg | 0.003 µM | > 3 µM |  |  |  |
| Cn1c(-c2ccc(C(N)=O)cc2Cl)nnc1C(C)(C)Oc1c(F)cc(Cl)cc1F [Example 185] |  | 0.0029 µM | > 3 µM |  |  |  |
| Cn1c(-c2sc(N)nc2C(F)(F)F)nnc1C(C)(C)Oc1c(F)cc(Cl)cc1F [Example 587] |  | 0.013 µM | > 3 µM |  |  |  |
| CCn1c(-c2ccc(C(N)=O)cc2)nnc1C(C)(C)Oc1c(F)cc(Cl)cc1F [Example 509] | 0.01 mg/kg | 0.021 µM | > 10 µM |  |  |  |
| Cn1c(-c2ccc(C(N)=O)cc2Cl)nnc1C(C)(C)Oc1c(F)cc(F)cc1F [Example 175] |  | 0.003 µM | > 3 µM | 1.24 | 20% (3 mg/kg) |  |
| Cn1c(-c2ccc(C(N)=O)cc2F)nnc1C(C)(C)Oc1c(F)cc(Cl)cc1F [Example 186] | 0.03 mg/kg | 0.0033 µM | > 3 µM |  | 23% (3 mg/kg) |  |
| CCn1c(-c2ccc3c(c2)CNC3=O)nnc1C(C)(C)Oc1c(F)cc(F)cc1F [Example 518] |  | 0.008 µM | > 3 µM |  |  |  |
| CCn1c(-c2ccc3cn[nH]c3c2)nnc1C(C)(C)Oc1c(F)cc(Cl)cc1F [Example 83, 6-{5-[1-(4-chloro-2,6-difluorophenoxy)-1-methylethyl]-4-ethyl-4H-1,2,4-triazol-3-yl}-1H-indazole] |  | 0.023 µM | > 10 µM |  |  |  |
| Cn1c(-c2ccccc2C(F)(F)F)nnc1C(C)(C)Oc1ccc(Br)cn1 [Example 148] | 0.03 mg/kg | 0.0046 µM | > 3 µM |  |  |  |
| CCn1c(N2CCc3[nH]ncc3C2)nnc1C(C)(C)Oc1c(F)cc(F)cc1F [Example 87, 5-{4-ethyl-5-[1-methyl-1-(2,4,6-trifluorophenoxy)ethyl]-4H-1,2,4-triazol-3-yl}-4,5,6,7-tetrahydro-1H-pyrazolo[4,3-c]pyridine dihydrochloride] |  | 0.013 µM | > 10 µM |  |  |  |
| Cn1c(-c2ccccc2C(F)(F)F)nnc1C(C)(C)Oc1ccc(Cl)cc1-c1nnco1 [Example 69, 2-[5-chloro-2-(1-methyl-1-{4-methyl-5-[2-(trifluoromethyl)phenyl]-4H-1,2,4-triazol-3-yl}ethoxy)phenyl]-1,3,4-oxadiazole] |  | 0.0055 µM | > 3 µM |  |  | 32% (10 mg/kg) |
| Cn1cc(-c2nnc(C(C)(C)Oc3c(F)cc(F)cc3F)n2C2CC2)c(Cl)n1 [Example 545] |  | 0.073 µM | > 10 µM |  |  |  |
| C[C@H](Oc1ccc(C(N)=O)cc1Br)c1nnc(-c2ccccc2C(F)(F)F)n1C [Example 127] |  | 0.0087 µM | > 3 µM |  |  |  |
| Cn1c(-c2ccncc2C(F)(F)F)nnc1C(C)(C)Oc1c(F)cc(Cl)cc1F [Example 544] |  | 0.015 µM | > 10 µM |  |  |  |
| Cn1c(-c2cc(Cl)ccc2Cl)nnc1C(C)(C)Oc1c(F)cc(F)cc1F [Example 374] |  | 0.05 µM | > 30 µM |  |  |  |
| Cn1c(-c2ccc(F)cc2Br)nnc1C(C)(C)Oc1ccc(Cl)cc1 [Example 215] | 0.01 mg/kg | 0.012 µM | > 10 µM |  |  |  |
| Cn1c(-c2ccccc2C(F)(F)F)nnc1C(C)(C)Oc1ccc(C(F)(F)F)cc1Cl [Example 204] |  | 0.12 µM | > 10 µM |  |  | 29% (10 mg/kg) |
